# Patent US20140088144A1, “INHIBITING MICROBIAL INFECTIONS” (THE UNIVERSITY OF KANSAS, priority 2012, published 2014)
# What was measured:
# icsB = test: Shigella gene expression qRT-PCR, icsB; type: cell-based, S. flexneri; conditions: for Average ΔΔCt / Ct / RQ (2^−ΔΔCt) / ΔΔCt^1 (normalized to gapA) / ΔΔCt^2 (normalized to rrsA): icsB, example data
# Protocol: Real-time quantitative reverse transcription PCR (qRT-PCR) was performed to test the effects of SE-1 on the expression of the VirF regulated genes virB, icsA, icsB and ipaB. The gapA and rrsA transcripts were used as internal controls. These are constitutively expressed Shigella genes commonly used to normalize mRNA levels. S. flexneri strain SME4331, which carries a null mutation in ipgD (ipgD), was grown at 30° C. overnight in TSB with ampicillin, diluted into the same medium to an OD600 of ˜0.1, and 1 ml aliquots further grown at 30° C. (DMSO only) or at 37° C. (SE-1 at 20 or 40 μM, or DMSO only, all 0.3% DMSO). Cells were grown to an OD600 of 1.0 (˜2.5 h) and RNA was isolated using an RNeasy MiniElute Cleanup Kit (Qiagen, Germantown, Md.), with DNA contamination eliminated using a Turbo DNase Kit (Ambion, Austin, Tex.). Complementary DNA (cDNA) was synthesized by random priming using a cDNA Reverse Transcription Kit (Applied Biosystems, Foster City, Calif.). Primers were tested for PCR specificity using genomic DNA template to ensure a single amplicon of the expected size for each primer pair, and validated using 5-fold dilutions of cDNA (2000 to 0.0256 ng) to ensure a linear plot of cycle threshold (Ct) versus cDNA concentration. Validated primer sets were used to test mRNA profiles in reactions that contained 10 ng of cDNA, 10 μl of SYBR green master mix (Applied Biosystems), specific primers (0.5 μM each) and water to a final volume of 20 μl, using a Step One Plus Real-Time PCR System (Applied Biosystems). The data was analyzed using the 2^−ΔΔCt method, and also by Applied Biosystems real-time analysis software. […] In brief, ΔΔCt values [ΔΔCt=(Ct,Target−Ct,Internal Control)SE-1−(Ct,Target−Ct,Internal Control)no SE-1] were separately obtained for each sample relative to two internal controls, gapA and rrsA. The ΔΔCt values relative to the two internal controls for each sample were averaged and then used to calculate the relative expression levels (2^−ΔΔCt). As a control, we also normalized each internal control to the other internal control. Control reactions used templates generated without reverse transcriptase to ensure low genomic DNA contamination. To ensure that products were not likely to be due to primer dimer artifacts, additional control samples were performed in which reaction mixtures contained primers alone (no template).
# MBP-NS1-NTD = test: Fluorescence-based thermal shift assay (Sypro Orange), control protein; type: binding; conditions: 0 or 80 μM SE-1, 1 μM protein
# Protocol: Binding of SE-1 to purified VirF was tested by comparing the VirF melting temperature (Tm) in the absence and presence of SE-1 using a thermal shift assay with the fluorescent dye Sypro Orange (Molecular Probes). This method is also known as differential scanning fluorimetry or DSF. As a control, we tested binding of SE-1 to the purified, unrelated, MBP-NS1-NTD protein (greater than 95% pure). Reactions contained (final concentrations): 1 μM protein; 20×Sypro Orange (a 250-fold dilution of the purchased 5,000× stock solution); 0.76×EMSA buffer (7.6 mM Tris-acetate, pH 7.4, 0.76 mM KEDTA, 38 mM KCl, and 0.76 mM DTT); 4% DMSO; and 0 or 80 μM SE-1. The reactions were carried out in 0.1 ml PCR low profile 8-tube strips with optically clear flat caps (USA Scientific) in a StepOnePlus™ Real-Time PCR System (Applied Biosystems), heating from 25 to 99° C. in increments of 0.8° C. The data was analyzed using the Boltzmann sigmoidal model in the software Prism (GraphPad). Data points before and after the fluorescence intensity minimum and maximum, respectively, were excluded from fitting. The ΔTm values are the average of three independent experiments with two replicates in each experiment. A single, representative, experiment is shown.
compound,measurement,setting,value
"CCCCN1C=C(c2ccc3ccccc3n2)C(C[N+](=O)[O-])c2ccccc21 (stereo not drawn) [Compound 1, 1-butyl-4-(nitromethyl)-3-quinolin-2-yl-4H-quinoline]",reduction of icsB expression,"icsB; 40 μM SE-1, P<0.05",two-fold reduction
same,Average ΔΔCt,icsB; SE-1 20 μM,−0.06
same,Ct,icsB; SE-1 20 μM,26.25
same,RQ (2^−ΔΔCt),icsB; SE-1 20 μM,1.04
same,ΔΔCt^1 (normalized to gapA),icsB; SE-1 20 μM,−0.56
same,ΔΔCt^2 (normalized to rrsA),icsB; SE-1 20 μM,0.44
same,Average ΔΔCt,icsB; SE-1 40 μM,1.14
same,Ct,icsB; SE-1 40 μM,27.04
same,RQ (2^−ΔΔCt),icsB; SE-1 40 μM,0.45
same,ΔΔCt^1 (normalized to gapA),icsB; SE-1 40 μM,0.80
same,ΔΔCt^2 (normalized to rrsA),icsB; SE-1 40 μM,1.49
same,change in melting temperature of MBP-NS1-NTD,MBP-NS1-NTD,0.15 °C
